Source: patent publication US7279332B2, “Method of isolating ependymal neural stem cells” (NeuroNova AB, priority 1998, dated 2007)

Test system: nigral dopamine neurons (substantia nigra pars compact)
Assay: Quantitative in vivo neurogenesis in substantia nigra pars compact after DiI labeling of ependymal cells
Settings: mice
Protocol: Adult rats and mice were given DiI through intraventricular injections as described in the example above. At various time intervals after the injection (hours-months), the animals were transcardially perfused with 15 ml 0.9% saline, followed by 50 ml of +4° C. 4% (w/v) paraformaldehyde and 0.4% (v/v) picric acid in 0.1 M phosphate buffered saline, pH 6.9, during 5 min. After brain removal, the tissue was fixed for an additional 90 minutes in the same fixative and cryoprotected in buffered sucrose (10% for 24 h, 30% for 2 days) at +4° C. The entire midbrain was cut with a cryostat using a systematic, uniform random sampling design, where 40 μm thick frontal sections were taken to six parallel rostrocaudal series. One series of sections was kept in 0.1 M PBS and the fluorescent signal was immediately converted to a permanent diaminobenzidine (DAB) signal using a modified previously described protocol (Singleton et al., J. Neurosci. Meth. 64:47). […] The photoconversion process was carefully evaluated and when all the fluorescent signal in substantia nigra was visualized with the brown DAB product, the sections were immunohistochemically labeled with a marker (Vector SG, Vector) for dopamine neurons (tyrosine hydroxylase) utilizing the avidin-biotin-immunoperoxidase system (Vector) (Janson et al., Neuroscience 57:931). The five parallel series of sections were instead stored in 30% sucrose in 0.1 M PBS at −20° C. until they were processed for immunohistochemistry and analyzed in a confocal laser scanning microscope utilizing several markers for glia and neurons (with appropriate controls) to determine the neuronal phenotype of the DiI labeled cells in substantia nigra pars compact (FIG. 8).
Quantitative estimates of the total number of TH immunoreactive cell bodies counterstained with cresyl violet (TH/CV+ neurons) as well as TH immunoreactive cell bodies also containing DiI label were made in the bilateral SNc. Neuronal counts were determined using coded sections and a stereological technique, the optical fractionator (Janson et al., Neuroscience 57:931). […]

## CN1CC=C(c2ccccc2)CC1 [MPTP, 1-methyl-4-phenyl-1,2,3,6-tetrahydropyridine]
MPTP 40 mg/kg sc. vs vehicle
  number of TH+/DiI+ nigral neurons: higher numbers of TH+/DiI+ nigral neurons
MPTP 40 mg/kg sc. vs vehicle, qualitative appearance
  migratory streams of DiI+ cells in the midbrain: appeared more pronounced
MPTP 40 mg/kg sc., regression curve (r^2=0.744) of counts at a few hours to 2 months
  increase in number of new neurons generated each week in substantia nigra, compared to animals treated with vehicle alone: 24%
